According to patent publication US8741897B2, “Glucocorticoid mimetics, methods of making them, pharmaceutical compositions and uses thereof” (Boehringer Ingelheim Pharmaceuticals Inc., priority 2003, dated 2014):

What was measured:
[1] = target: T1, human glucocorticoid receptor (GR) complex (Homo sapiens, UniProt P04150); assay: Glucocorticoid receptor competitive binding assay (fluorescence polarization, TAMRA-labeled dexamethasone probe); details: compounds of Formula (IA)
T1 construct: made in house; host or cells: insect expression system (baculovirus lysate)
T1 sequence (P04150 1-777): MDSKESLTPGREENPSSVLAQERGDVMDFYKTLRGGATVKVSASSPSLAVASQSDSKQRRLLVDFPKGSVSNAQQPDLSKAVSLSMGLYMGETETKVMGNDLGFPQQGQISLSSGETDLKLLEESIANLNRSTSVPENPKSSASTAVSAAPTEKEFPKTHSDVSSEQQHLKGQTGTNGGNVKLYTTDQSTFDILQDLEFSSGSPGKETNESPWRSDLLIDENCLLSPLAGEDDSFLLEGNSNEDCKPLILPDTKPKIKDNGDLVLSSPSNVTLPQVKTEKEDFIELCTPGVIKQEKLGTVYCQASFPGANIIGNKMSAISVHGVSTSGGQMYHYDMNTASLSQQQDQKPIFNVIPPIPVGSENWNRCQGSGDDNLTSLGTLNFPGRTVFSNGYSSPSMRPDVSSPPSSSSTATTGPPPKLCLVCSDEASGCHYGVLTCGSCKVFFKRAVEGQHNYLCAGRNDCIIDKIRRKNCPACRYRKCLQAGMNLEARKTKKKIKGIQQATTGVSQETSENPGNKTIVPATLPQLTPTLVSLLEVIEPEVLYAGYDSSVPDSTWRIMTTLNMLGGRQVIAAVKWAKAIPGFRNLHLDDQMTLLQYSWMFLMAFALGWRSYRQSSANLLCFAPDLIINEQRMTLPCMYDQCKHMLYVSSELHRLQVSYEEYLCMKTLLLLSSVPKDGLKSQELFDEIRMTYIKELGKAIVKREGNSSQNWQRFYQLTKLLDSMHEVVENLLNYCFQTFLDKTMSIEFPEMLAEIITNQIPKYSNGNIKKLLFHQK
Description: Compounds of the invention were evaluated for binding to the steroid receptor by a fluorescence polarization competitive binding assay. Detailed descriptions for preparation of recombinant glucocorticoid receptor (GR) complex used in the assay is described in U.S. patent application Pub.
A. Glucocorticoid Receptor Competitive Binding Assay
Step 1. Characterization of the Fluorescent Probe
The wavelengths for maximum excitation and emission of the fluorescent probe should first be measured. An example of such a probe is rhodamine (TAMRA)-labeled dexamethasone.
The affinity of the probe for the steroid receptor was then determined in a titration experiment. The fluorescence polarization value of the probe in assay buffer was measured on an SLM-8100 fluorometer using the excitation and emission maximum values described above. Aliquots of expression vector lysate were added and fluorescence polarization was measured after each addition until no further change in polarization value was observed. Non-linear least squares regression analysis was used to calculate the dissociation constant of the probe from the polarization values obtained for lysate binding to the probe.
Step 2. Screening for Inhibitors of Probe Binding
This assay uses fluorescence polarization (FP) to quantitate the ability of test compounds to compete with tetramethyl rhodamine (TAMRA)-labeled dexamethasone for binding to a human glucocorticoid receptor (GR) complex prepared from an insect expression system. The assay buffer was: 10 mM TES, 50 mM KCl, 20 mM Na2MoO4.2H2O, 1.5 mM EDTA, 0.04% w/v CHAPS, 10% v/v glycerol, 1 mM dithiothreitol, pH 7.4. Test compounds were dissolved to 1 mM in neat DMSO and then further diluted to 10× assay concentration in assay buffer supplemented with 10% v/v DMSO. Test compounds were serially diluted at 10× assay concentrations in 10% DMSO-containing buffer in 96-well polypropylene plates. Binding reaction mixtures were prepared in 96-well black Dynex microtiter plates by sequential addition of the following assay components to each well: 15 μL of 10× test compound solution, 85 μL of GR-containing baculovirus lysate diluted 1:170 in assay buffer, and 50 μL of 15 nM TAMRA-labeled dexamethasone. Positive controls were reaction mixtures containing no test compound; negative controls (blanks) were reaction mixtures containing 0.7 μM to 2 μM dexamethasone. […] IC50 values were determined by iterative non-linear curve fitting of the FP signal data to a 4-parameter logistic equation.

[2] = test system: glucocorticoid receptor function; assay: one or more of the above assays (GR binding and glucocorticoid receptor cell assays: aromatase, IL-6, TAT, MMTV-Luc, IL-8, ICAM-Luc); format: cell-based; details: assay not specified per compound

In the case of Cc1ccc(F)cc1C(C)(C)CC(O)(Cc1[nH]c2cnccc2c1C)C(F)(F)F (stereo not shown) [1,1,1-Trifluoro-4-(5-fluoro-2-methylphenyl)-4-methyl-2-(3-methyl-1H-pyrrolo[2,3-c]pyridin-2-ylmethyl)pentan-2-ol], the “activity in the GR binding assay” value [1] is reported as “potent activity” and the “activity as agonists of the glucocorticoid receptor function in one or more of the above assays” value (“activity as agonists” below) [2] is reported as “potent agonists”.

For CC(C)(CC(O)(Cc1ccnc2ccccc12)C(F)(F)F)c1ccc(F)cc1 (stereo not shown) [1,1,1-Trifluoro-4-(4-fluorophenyl)-4-methyl-2-quinolin-4-ylmethylpentan-2-ol], the “activity in the GR binding assay” value [1] was “potent activity” and the “activity as agonists” value [2] was “potent agonists”.

Cc1cc(C)c(C(C)(C)CC(O)(Cc2[nH]c3ccccc3c2C#N)C(F)(F)F)cc1O (stereo not shown) [2-[2-Hydroxy-4-(5-hydroxy-2,4-dimethylphenyl)-4-methyl-2-trifluoromethylpentyl]-1H-indole-3-carbonitrile] was tested, and the “activity in the GR binding assay” value [1] was “potent activity” and the “activity as agonists” value [2] was “potent agonists”.

Cc1cc2[nH]c(CC(O)(CC(C)(C)c3cc(F)ccc3C)C(F)(F)F)cc2c(C)n1 (stereo not shown) [2-(4,6-Dimethyl-1H-pyrrolo[3,2-c]pyridin-2-ylmethyl)-1,1,1-trifluoro-4-(5-fluoro-2-methylphenyl)-4-methylpentan-2-ol] was tested, and the “activity in the GR binding assay” value [1] was “potent activity” and the “activity as agonists” value [2] was “potent agonists”.

CC(C)(CC(O)(Cc1ccnc2ccccc12)C(F)(F)F)c1cc(C#N)cc2c1OCC2 (stereo not shown) [7-(4,4,4-Trifluoro-3-hydroxy-1,1-dimethyl-3-quinolin-4-ylmethylbutyl)-2,3-dihydrobenzofuran-5-carbonitrile] was tested, and the “activity in the GR binding assay” value [1] was “potent activity” and the “activity as agonists” value [2] was “potent agonists”.

For Cc1ccc(O)c(C(C)(C)CC(O)(Cc2cc3c(C)cc(C#N)cc3[nH]2)C(F)(F)F)c1 (stereo not shown) [2-[2-Hydroxy-4-(2-hydroxy-5-methylphenyl)-4-methyl-2-trifluoromethylpentyl]-4-methyl-1H-indole-6-carbonitrile], the “activity in the GR binding assay” value [1] was “potent activity” and the “activity as agonists” value [2] was “potent agonists”.

With CC(C)(C)c1ccc(O)c(C(C)(C)CC(O)(Cc2[nH]c3ccccc3c2C#N)C(F)(F)F)c1 (stereo not shown) [2-[4-(5-tert-Butyl-2-hydroxyphenyl)-2-hydroxy-4-methyl-2-trifluoromethylpentyl]-1H-indole-3-carbonitrile] the “activity in the GR binding assay” value [1] was “potent activity” and the “activity as agonists” value [2] was “potent agonists”.

With Cc1cc(F)ccc1C(C)(C)CC(O)(Cc1ccnc2ccccc12)C(F)(F)F (stereo not shown) [1,1,1-Trifluoro-4-(4-fluoro-2-methylphenyl)-4-methyl-2-quinolin-4-ylmethylpentan-2-ol] the “activity in the GR binding assay” value [1] was “potent activity” and the “activity as agonists” value [2] was “potent agonists”.

In the case of COc1ccc2[nH]c(CC(O)(CC(C)(C)c3cc(F)ccc3C)C(F)(F)F)cc2n1 (stereo not shown) [1,1,1-Trifluoro-4-(5-fluoro-2-methylphenyl)-2-(5-methoxy-1H-pyrrolo[3,2-b]pyridin-2-ylmethyl)-4-methylpentan-2-ol], the “activity in the GR binding assay” value [1] is reported as “potent activity” and the “activity as agonists” value [2] is reported as “potent agonists”.

For Cc1cc(CC(O)(CC(C)(C)c2cccc3c2OCC3)C(F)(F)F)cc(C)n1 (stereo not shown) [4-(2,3-Dihydrobenzofuran-7-yl)-2-(2,6-dimethylpyridin-4-ylmethyl)-1,1,1-trifluoro-4-methylpentan-2-ol], the “activity in the GR binding assay” value [1] was “potent activity” and the “activity as agonists” value [2] was “potent agonists”.

Cc1cc(CC(O)(CC(C)(C)c2cccc(F)c2)C(F)(F)F)cc(C)n1 (stereo not shown) [2-(2,6-Dimethylpyridin-4-ylmethyl)-1,1,1-trifluoro-4-(3-fluorophenyl)-4-methylpentan-2-ol] was tested, and the “activity in the GR binding assay” value [1] was “potent activity” and the “activity as agonists” value [2] was “potent agonists”.

In the case of Cc1cc2c(c(C(C)(C)CC(O)(Cc3cc4ccncc4[nH]3)C(F)(F)F)c1)OCC2 (stereo not shown) [1,1,1-Trifluoro-4-methyl-4-(5-methyl-2,3-dihydrobenzofuran-7-yl)-2-(1H-pyrrolo[2,3-c]pyridin-2-ylmethyl)pentan-2-ol], the “activity in the GR binding assay” value [1] is reported as “potent activity” and the “activity as agonists” value [2] is reported as “potent agonists”.

With COc1ccc(F)cc1C(C)(C)CC(O)(Cc1cc2cc(C(=O)N3CCCC3)ccc2[nH]1)C(F)(F)F (stereo not shown) [{2-[4-(5-Fluoro-2-methoxyphenyl)-2-hydroxy-4-methyl-2-trifluoromethylpentyl]-1H-indol-5-yl}pyrrolidin-1-ylmethanone] the “activity in the GR binding assay” value [1] was “potent activity” and the “activity as agonists” value [2] was “potent agonists”.

In the case of Cc1cc(CC(O)(CC(C)(C)c2cc(F)ccc2O)C(F)(F)F)c2ccccc2n1 (stereo not shown) [4-Fluoro-2-[4,4,4-trifluoro-3-hydroxy-1,1-dimethyl-3-(2-methylquinolin-4-ylmethyl)butyl]phenol], the “activity in the GR binding assay” value [1] is reported as “potent activity” and the “activity as agonists” value [2] is reported as “potent agonists”.

With CC(C)(CC(O)(Cc1cc(Cl)nc2ccc(Cl)cc12)C(F)(F)F)c1cc(F)ccc1O (stereo not shown) [2-[3-(2,6-Dichloroquinolin-4-ylmethyl)-4,4,4-trifluoro-3-hydroxy-1,1-dimethylbutyl]-4-fluorophenol] the “activity in the GR binding assay” value [1] was “potent activity” and the “activity as agonists” value [2] was “potent agonists”.

For COc1ccc(F)cc1C(C)(C)CC(O)(Cc1cc2c(C)cncc2[nH]1)C(F)(F)F (stereo not shown) [1,1,1-Trifluoro-4-(5-fluoro-2-methoxyphenyl)-4-methyl-2-(4-methyl-1H-pyrrolo[2,3-c]pyridin-2-ylmethyl)pentan-2-ol], the “activity in the GR binding assay” value [1] was “potent activity” and the “activity as agonists” value [2] was “potent agonists”.

With COc1ccc(F)cc1C(C)(C)CC(O)(Cc1cc2ncncc2[nH]1)C(F)(F)F (stereo not shown) [1,1,1-Trifluoro-4-(5-fluoro-2-methoxyphenyl)-4-methyl-2-(5H-pyrrolo[3,2-d]pyrimidin-6-ylmethyl)pentan-2-ol] the “activity in the GR binding assay” value [1] was “potent activity” and the “activity as agonists” value [2] was “potent agonists”.

With COc1ccc(F)cc1C(C)(C)CC(O)(Cc1cc2c(C)nc(C)cc2[nH]1)C(F)(F)F (stereo not shown) [2-(4,6-Dimethyl-1H-pyrrolo[3,2-c]pyridin-2-ylmethyl)-1,1,1-trifluoro-4-(5-fluoro-2-methoxyphenyl)-4-methylpentan-2-ol] the “activity in the GR binding assay” value [1] was “potent activity” and the “activity as agonists” value [2] was “potent agonists”.

CC(C)(CC(O)(Cc1cc2ncncc2[nH]1)C(F)(F)F)c1cc(Cl)cc2c1OCC2 (stereo not shown) [4-(5-Chloro-2,3-dihydrobenzofuran-7-yl)-1,1,1-trifluoro-4-methyl-2-(5H-pyrrolo[3,2-d]pyrimidin-6-ylmethyl)pentan-2-ol] was tested, and the “activity in the GR binding assay” value [1] was “potent activity” and the “activity as agonists” value [2] was “potent agonists”.

COc1ccc(F)cc1C(C)(C)CC(O)(Cc1cc2ccc(C#N)cc2[nH]1)C(F)(F)F (stereo not shown) [2-[4-(5-Fluoro-2-methoxyphenyl)-2-hydroxy-4-methyl-2-trifluoromethylpentyl]-1H-indole-6-carbonitrile] was tested, and the “activity in the GR binding assay” value [1] was “potent activity” and the “activity as agonists” value [2] was “potent agonists”.
